According to paper PMC7198382 (Journal of nuclear medicine : official publication, Society …, 2019):

Columns and labels:
[1] = test system: CA20948 tumor xenograft-bearing mice; assay: SPECT/CT tumor uptake of 177Lu-DOTATATE; assay type: in vivo; conditions: dynamic SPECT imaging after intravenous administration, one mouse
CA20948 tumor xenografts = assay: In vivo 177Lu tumor dosimetry from SPECT VOI analysis; set-up: species or system mice; conditions: single exponential fit of tumour time-activity data; mean ± SD

Structure (SMILES): C[C@@H](O)[C@H](NC(=O)[C@@H]1CSSC[C@H](NC(=O)[C@@H](Cc2ccccc2)NC(=O)CN2CCN(CC(=O)O)CCN(CC(=O)O)CCN(CC(=O)O)CC2)C(=O)N[C@@H](Cc2ccc(O)cc2)C(=O)N[C@H](Cc2c[nH]c3ccccc23)C(=O)N[C@@H](CCCCN)C(=O)N[C@@H]([C@@H](C)O)C(=O)N1)C(=O)O [^177Lu-DOTATATE, (DOTA^0-Tyr^3)-octreotate, metal not drawn]
- time at which maximum tumor uptake was reached [1]: 60 min
- mean effective half-life of clearance from the tumor xenografts (CA20948 tumor xenografts): 46.3 ± 8.6 h
